Assay results as given in patent publication US20100267725A1, “Compounds, Compositions and Methods Comprising 4N-Substituted Triazole Derivatives” (Institute for OneWorld Health, priority 2009, published 2010).

Target: T1, CFTR channel (Homo sapiens, UniProt P13569)
T1 construct: host or cells: Human colonic T84 cells
Experiment: T84 assay (FLIPR membrane potential dye, forskolin/IBMX-stimulated CFTR channel activity)
Type: cell-based
Conditions: Human colonic T84 cells; CFTR stimulated with 10 μM forskolin + 100 μM IBMX
Method: (§1) For example, Human colonic T84 cells can be acquired from the European Collection of Cell Cultures (ECACC) and grown in standard culture conditions as described by the supplier. On the day before assay 25,000 T84 cells per well are plated into standard black walled, clear bottom 384-well assay plates in standard growth medium consisting of DMEM:F12 with 10% FBS and incubated overnight. On the day of the assay the plates are washed using a standard assay buffer (HBSS with 10 mM Hepes) and incubated for 15 minutes in serum free cell culture medium before the addition of a commercially available membrane potential sensitive fluorescent dye (FLIPR Red membrane potential dye, Molecular Devices Corporation). T84 cells are incubated with the FLIPR Red membrane potential dye for 45 minutes in the presence and absence of test compound before being transferred to a commercially available fluorescence imaging plate reader (FLIPR384, Molecular Devices Corporation). Fluorescence levels are monitored continuously every second for 150 seconds; after an initial 10 second baseline, CFTR channel activity is stimulated through the addition of 10 μM forskolin in the presence of 100 μM of the phosphodiesterase inhibitor iso-butyl-methylxanthine (IBMX). Addition of the forskolin leads to the activation of intracellular adenylyl cylase 1, elevating cAMP levels and results in the phosphorylation and opening of CFTR anion channels. CFTR channel opening causes chloride ion efflux and subsequent depolarization of the cells, which is measured by an increase in fluorescence. CFTR inhibitor compounds prevent cell depolarization and the associated increase in fluorescence.
as §1, with “Human colonic” for “For example, Human colonic”, “T84 cells are acquired from” for “T84 cells can be acquired from”, “(ECACC) and are grown in” for “(ECACC) and grown in”

T1 sequence (P13569 whole entry): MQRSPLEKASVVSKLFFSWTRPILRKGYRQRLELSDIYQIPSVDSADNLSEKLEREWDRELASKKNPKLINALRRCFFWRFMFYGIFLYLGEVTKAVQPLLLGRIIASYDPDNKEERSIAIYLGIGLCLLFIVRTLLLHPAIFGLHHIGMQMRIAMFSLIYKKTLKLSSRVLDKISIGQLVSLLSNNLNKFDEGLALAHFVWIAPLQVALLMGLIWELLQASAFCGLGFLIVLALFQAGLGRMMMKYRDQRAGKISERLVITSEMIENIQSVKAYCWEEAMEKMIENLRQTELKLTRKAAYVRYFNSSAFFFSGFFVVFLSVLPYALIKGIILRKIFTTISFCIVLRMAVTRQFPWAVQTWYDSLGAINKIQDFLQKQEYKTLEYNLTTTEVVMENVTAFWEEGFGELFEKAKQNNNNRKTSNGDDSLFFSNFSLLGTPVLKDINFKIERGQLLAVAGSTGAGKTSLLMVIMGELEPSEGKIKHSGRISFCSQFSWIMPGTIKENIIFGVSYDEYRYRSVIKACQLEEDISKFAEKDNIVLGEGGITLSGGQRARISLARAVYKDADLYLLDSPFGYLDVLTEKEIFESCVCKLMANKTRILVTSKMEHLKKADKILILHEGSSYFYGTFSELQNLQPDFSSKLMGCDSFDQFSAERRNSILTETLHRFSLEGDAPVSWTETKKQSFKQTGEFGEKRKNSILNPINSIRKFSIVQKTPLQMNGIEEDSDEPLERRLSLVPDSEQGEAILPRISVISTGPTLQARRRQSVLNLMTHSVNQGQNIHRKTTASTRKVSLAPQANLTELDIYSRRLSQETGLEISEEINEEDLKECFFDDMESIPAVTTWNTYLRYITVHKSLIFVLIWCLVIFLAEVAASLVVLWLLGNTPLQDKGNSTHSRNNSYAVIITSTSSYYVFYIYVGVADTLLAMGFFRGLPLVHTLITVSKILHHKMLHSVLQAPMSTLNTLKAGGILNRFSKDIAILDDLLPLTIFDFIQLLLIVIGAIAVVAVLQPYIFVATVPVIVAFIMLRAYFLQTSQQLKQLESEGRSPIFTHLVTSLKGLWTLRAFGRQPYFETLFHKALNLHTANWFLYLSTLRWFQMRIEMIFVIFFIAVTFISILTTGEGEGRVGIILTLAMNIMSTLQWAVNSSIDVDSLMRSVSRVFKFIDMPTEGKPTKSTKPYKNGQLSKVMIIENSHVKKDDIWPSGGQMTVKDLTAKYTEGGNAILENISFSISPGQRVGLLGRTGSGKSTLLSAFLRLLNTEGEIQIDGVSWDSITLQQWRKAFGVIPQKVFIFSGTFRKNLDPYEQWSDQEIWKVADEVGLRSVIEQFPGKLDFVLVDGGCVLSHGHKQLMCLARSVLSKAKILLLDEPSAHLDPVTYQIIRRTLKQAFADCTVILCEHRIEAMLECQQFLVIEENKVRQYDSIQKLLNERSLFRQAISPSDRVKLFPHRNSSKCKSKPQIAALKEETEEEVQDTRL

SMILES | IC50 [µM]
O=C(NCc1ccc(Oc2ccccc2)cc1)c1nnc(-c2cc(Cl)c(O)c(Cl)c2)n1Cc1ccccn1 [Compound 4, 5-(3,5-dichloro-4-hydroxyphenyl)-N-(4-phenoxybenzyl)-4-(pyridin-2-ylmethyl)-4H-1,2,4-triazole-3-carboxamide] | 12.9
COc1ccc(-n2c(C(=O)NCc3ccc(Oc4ccccc4)cc3)nnc2-c2cc(Cl)c(O)c(Cl)c2)cn1 [Compound 5, 5-(3,5-dichloro-4-hydroxyphenyl)-4-(6-methoxypyridin-3-yl)-N-(4-phenoxybenzyl)-4H-1,2,4-triazole-3-carboxamide] | 7.74
CN(C)c1cccc(Cn2c(C(=O)NCc3ccc(Oc4ccccc4)cc3)nnc2-c2cc(Cl)c(O)c(Cl)c2)c1 [Compound 2, 5-(3,5-dichloro-4-hydroxyphenyl)-4-(3-(dimethylamino)benzyl)-N-(4-phenoxybenzyl)-4H-1,2,4-triazole-3-carboxamide] | 6.69
O=C(NCc1ccc(Oc2ccccc2)cc1)c1nnc(-c2cc(Cl)c(O)c(Cl)c2)n1Cc1ccc(CN2CCOCC2)cc1 [Compound 6, 5-(3,5-dichloro-4-hydroxyphenyl)-4-(4-(morpholinomethyl)benzyl)-N-(4-phenoxybenzyl)-4H-1,2,4-triazole-3-carboxamide] | 12.8

Continued by falling IC50, values first:

IC50 [µM] | SMILES
7.18 | O=C(NCc1ccc(Oc2ccccc2)cc1)c1nnc(-c2cc(Cl)c(O)c(Cl)c2)n1Cc1cccnc1 [Compound 3, 5-(3,5-Dichloro-4-hydroxyphenyl)-N-(4-phenoxybenzyl)-4-(pyridin-3-ylmethyl)-4H-1,2,4-triazole-3-carboxamide]
7.14 | O=C(NCc1ccc(Oc2ccccc2)cc1)c1nnc(-c2cc(Cl)c(O)c(Cl)c2)n1Cc1ccccc1 [Compound 1, 4-benzyl-5-(3,5-dichloro-4-hydroxyphenyl)-N-(4-phenoxybenzyl)-4H-1,2,4-triazole-3-carboxamide]
